Consider eleven compounds from patent publication US10975068B2, “6-aminopyridin-3-yl thiazoles as modulators of RORγT” (Janssen Pharmaceutica NV, priority 2016, dated 2021).

The test system of test [1] is IL-17 production by CD4 T cells. As to the kind of experiment: Human Th17 assay. Format: cell-based. From the text:
The human Th17 assay tests the effect of RORγt modulatory compounds on IL-17 production by CD4 T cells under conditions which favor Th17 differentiation. Total CD4^+ T cells were isolated from the peripheral blood mononuclear cells (PBMC) of healthy donors using a CD4^+ T cell isolation kit II, following the manufacturer's instructions (Miltenyi Biotec). Cells were resuspended in a medium of RPMI-1640 supplemented with 10% fetal bovine serum, penicillin, streptomycin, glutamate, and β-mercaptoethanol and were added to 96-well plates at 1.5×10^5 per 100 μL per well. 50 μL of compound at titrated concentrations in DMSO were added into each well at final DMSO concentration at 0.2%. Cells were incubated for 1 hour, then 50 μL of Th17 cell differentiation medium was added to each well. The final concentrations of antibodies and cytokines (R&D Systems) in differentiation medium were: 3×10^6/mL anti-CD3/CD28 beads (prepared using human T cell activation/expansion kit, Miltenyi Biotec), 10 μg/mL anti-IL4, 10 μg/mL anti-IFNγ, 10 ng/mL IL1β, 10 ng/mL IL23, 50 ng/mL IL6, 3 ng/mL TGFβ and 20 U/mL IL2. Cells were cultured at 37° C. and 5% CO2 for 3 days. Supernatants were collected and the accumulated IL-17 in culture was measured by using MULTI-SPOT® Cytokine Plate following manufacture's instruction (Meso Scale Discovery). The plate was read using Sector Imager 6000, and IL-17 concentration was extrapolated from the standard curve. The IC50s were determined by GraphPad.

In test [2] the target is human RORγt ligand binding domain (RORγt LBD) (Homo sapiens (Human), UniProt P51449). As to the kind of experiment: RORγt ThermoFluor® assay (thermal shift binding). The following applies: read-out: ThermoFluor® Assay, Kd. The gist of the method: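 Binding was inferred from thermal stabilisation (ΔTm) of the E. coli-expressed RORγt LBD (0.065 mg/mL), monitored by 1,8-ANS (60 μM) emission at 500 nm during a 1 °C/min ramp. Buffer was Hepes 100 mM pH 7.0 with NaCl, GSH and Tween-20.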

[3] abbreviates: read-out: Human Th17 Assay, IC50 (μM).
[4] abbreviates: read-out: Human Th17 Assay, IC50.

Each structure is given as a SMILES string. Like-named read-outs stand apart in the source and are kept apart here.

human RORγt ligand binding domain (RORγt LBD), sequence (P51449 other isoform, or with tags, fused parts or gaps): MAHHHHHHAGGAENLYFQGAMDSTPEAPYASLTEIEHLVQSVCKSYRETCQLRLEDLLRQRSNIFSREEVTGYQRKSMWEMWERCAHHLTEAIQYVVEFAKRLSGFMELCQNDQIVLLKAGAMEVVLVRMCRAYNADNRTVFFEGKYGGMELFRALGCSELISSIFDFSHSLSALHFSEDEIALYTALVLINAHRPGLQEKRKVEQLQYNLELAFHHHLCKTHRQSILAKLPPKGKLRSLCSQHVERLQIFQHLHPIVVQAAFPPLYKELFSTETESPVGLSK

Regarding `CC(C)(O)CNC(=O)c1nc(C(=O)N2C3CCC2CC3)c(-c2cnc(NC3(C)CCC3)cc2C(F)F)s1` [Example 169, 4-((1s,4s)-7-Azabicyclo[2.2[1]heptane-7-carbonyl)-5-(4-(difluoromethyl)-6-((1-methylcyclobutyl)amino)pyridine-3-yl)-N-(2-hydroxy-2-methylpropyl))thiazole-2-carboxamide], the half-maximal inhibitory concentration (IC50) in test [1] (setting [3]) turned out to be 0.034 µM. The Kd in test [2] came out at 2.7 nM.
Take `C[C@H]1CCCCN1C(=O)c1nc(C(=O)NCC(C)(C)O)sc1-c1cnc(NC2CCCC2)cc1C(F)F` [Example 41, (S)-5-(6-(Cyclopentylamino)-4-(difluoromethyl)pyridin-3-yl)-N-(2-hydroxy-2-methylpropyl)-4-(2-methylpiperidine-1-carbonyl)thiazole-2-carboxamide]: the IC50 in test [1] (setting [4]) amounted to 0.043 µM. In addition, the Kd in test [2] came out at 0.74 nM.
On to `C[C@H]1CC(F)(F)CN1C(=O)c1nc(C(=O)NCC(C)(C)O)sc1-c1cnc(NC2(C)CCC2)cc1C(F)(F)F` [Example 141, (S)-4-(4,4-Difluoro-2-methylpyrrolidine-1-carbonyl)-N-(2-hydroxy-2-methylpropyl)-5-(6-((1-methylcyclobutyl)amino)-4-(trifluoromethyl)pyridin-3-yl)thiazole-2-carboxamide], for which the IC50 in test [1] (setting [4]) came out at 0.0055 µM. Further, in test [2], the Kd was 0.68 nM.
For `C[C@H]1CCCN1C(=O)c1nc(C(=O)NCC(C)(C)O)sc1-c1cnc(NC2CCCC2)cc1C(F)(F)F` [Example 38, (S)-5-(6-(Cyclopentylamino)-4-(trifluoromethyl)pyridin-3-yl)-N-(2-hydroxy-2-methylpropyl)-4-(2-methylpyrrolidine-1-carbonyl)thiazole-2-carboxamide] the same measures were 0.081 µM and 1.8 nM.
On to `C[C@H]1CCCCN1C(=O)c1nc(C(=O)NCC(C)(C)O)sc1-c1cnc(NCC(C)(C)C)cc1C(F)(F)F` [Example 86, (S)—N-(2-Hydroxy-2-methylpropyl)-4-(2-methylpiperidine-1-carbonyl)-5-(6-(neopentylamino)-4-(trifluoromethyl)pyridin-3-yl)thiazole-2-carboxamide], for which, in test [1] (setting [4]), the IC50 is 0.0028 µM. Further, the Kd in test [2] turned out to be 0.17 nM.
For `C[C@H](Nc1cc(C(F)F)c(-c2sc(C(=O)NCC(C)(C)O)nc2C(=O)N2CCCC[C@@H]2C)cn1)C1CC1` [Example 37, 5-(6-(((S)-1-Cyclopropylethyl)amino)-4-(difluoromethyl)pyridin-3-yl)-N-(2-hydroxy-2-methylpropyl)-4-((S)-2-methylpiperidine-1-carbonyl)thiazole-2-carboxamide] the same measures were 0.052 µM and 0.65 nM.
As to `C[C@H]1CCCN1C(=O)c1nc(C(=O)NCC(C)(C)O)sc1-c1cnc(NCC(C)(C)C)cc1C(F)(F)F` [Example 87, (S)—N-(2-Hydroxy-2-methylpropyl)-4-(2-methylpyrrolidine-1-carbonyl)-5-(6-(neopentylamino)-4-(trifluoromethyl)pyridin-3-yl)thiazole-2-carboxamide], the IC50 in test [1] (setting [4]) came to 0.025 µM. In addition, the Kd in test [2] is 1.3 nM.
Take `C[C@H](Nc1cc(C(F)F)c(-c2sc(C(=O)NCC(C)(C)O)nc2C(=O)N2CC(F)(F)C[C@@H]2C)cn1)C(F)(F)F` [Example 135]: in test [1] (setting [4]), the half-maximal inhibitory concentration (IC50) came out at 0.044 µM. Besides, the Kd in test [2] was determined as 3.5 nM.
Regarding `CC(C)(C)CNc1cc(C(F)F)c(-c2sc(C(=O)NCC(C)(C)O)nc2C(=O)N2C3CCC2CC3)cn1` [Example 116, 4-((1s,4s)-7-Azabicyclo[2.2.1]heptane-7-carbonyl)-5-(4-(difluoromethyl)-6-(neopentylamino)pyridin-3-yl)-N-(2-hydroxy-2-methylpropyl)thiazole-2-carboxamide], in test [1] (setting [3]), the IC50 amounted to 0.044 µM. The Kd in test [2] turned out to be 3.6 nM.
`C[C@H]1CCCN1C(=O)c1nc(C(=O)NCC(C)(C)O)sc1-c1cnc(NC(C)(C)C)cc1C(F)(F)F` [Example 52, (S)-5-(6-(tert-Butylamino)-4-(trifluoromethyl)pyridin-3-yl)-N-(2-hydroxy-2-methylpropyl)-4-(2-methylpyrrolidine-1-carbonyl)thiazole-2-carboxamide]: the IC50 in test [1] (setting [4]) amounted to 0.01 µM. Further, the Kd in test [2] was 1.2 nM.
Turning to `C[C@H](Nc1cc(C(F)(F)F)c(-c2sc(C(=O)NCC(C)(C)O)nc2C(=O)N2C3CCC2CC3)cn1)C1CC1` [Example 51, 4-((1s,4s)-7-Azabicyclo[2.2.1]heptane-7-carbonyl)-5-(6-(((S)-1-cyclopropylethyl)amino)-4-(trifluoromethyl)pyridin-3-yl)-N-(2-hydroxy-2-methylpropyl)thiazole-2-carboxamide], the IC50 in test [1] (setting [3]) amounted to 0.021 µM. In test [2], the Kd turned out to be 3.2 nM.
